According to publication PMC10471458 (BMB Reports, 2023):

Biological target: T1, Glutathione S-transferase omega 1 (mGstO1) (Mus musculus, UniProt O09131)
T1 sequence (O09131 2-240): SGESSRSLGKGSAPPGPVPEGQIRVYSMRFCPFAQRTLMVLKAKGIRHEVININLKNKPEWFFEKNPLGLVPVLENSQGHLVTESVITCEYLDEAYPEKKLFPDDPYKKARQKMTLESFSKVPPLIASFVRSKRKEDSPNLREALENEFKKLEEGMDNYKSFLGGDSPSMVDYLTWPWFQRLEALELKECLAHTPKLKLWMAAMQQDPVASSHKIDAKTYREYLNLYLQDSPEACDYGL
Type: biochemical

- spectrophotometric assay at 305 nm of 4-NPG reduction to 4-nitroacetophenone by: 10 U/mg
SMILES: N[C@@H](CCC(=O)N[C@@H](CSCC(=O)c1ccc([N+](=O)[O-])cc1)C(=O)NCC(=O)O)C(=O)O [4-NPG, 4-nitrophenacyl glutathione]
